Values joined by “and” are separate entries in the source; they are usually repeats but may differ in a detail not shown here. Equal values may be shown once.
Tests used:
[1] = quantitative (Q) 1H NMR spectroscopy, proportion of SSA becoming NMR silent (higher-order aggregates); format: physicochemical
Procedure: To confirm the presence of higher order self-associative structures quantitative (Q) ^1H NMR spectroscopy studies were undertaken at 5.6 mM in D2O 5% EtOH. Here the ^1H NMR resonances attributed to the EtOH are used as an internal standard.
Table S1 – Overview of results of the quantitative (Q) 1H NMR studies for 1, 3, 5, 7 and 9
5.0 % EtOH . Values given in % represent the observed proportion of the SSA that has become
Table S2 – Overview of results of the quantitative (Q) 1H NMR studies for 2, 4, 6, 8 and 10
5.0 % EtOH. Values given in % represent the observed proportion of anion and cation that has

S. aureus ATCC 9144 = test: inhibition of bacterial growth, OD600 after 20 h; format: cell-based, Staphylococcus aureus; conditions: SSA 5.0 mM, 2.5% ethanol, negative = enhanced growth
Procedure: (§1) With the self-associative properties of 1–10 established, the antimicrobial activity of these SSAs were determined against a panel of clinically relevant, high-priority pathogens including: P. aeruginosa PAO1; Klebsiella pneumonia (K. pneumoniae) M6; E. coli NCTC 12923; Acinetobacter baumannii (A. baumannii) ATCC 17978; S. aureus ATCC 9144; Enterococcus faecalis (E. faecalis) NCTC 775; and Enterococcus faecium (E. faecium) NCTC 12204. […] However, it should be noted that the SSA stock solution was prepared in a H2O 5% EtOH solution, to ensure that the SSA aggregates formed were in line with those characterised within the scope of the SSA self-association studies.
(§2) Section 3: Biological methods
(§3) These methods were taken directly from UK Health and Security Office (UKHSA) standard […]
(§4) Preparation of Luria Broth media (LB): Yeast extract (5.0 g), tryptone (10.0 g) and sodium chloride (10.0 g) were dissolved in dH₂O (1.0 L) then divided into bottles and autoclaved.
(§5) Preparation of Luria Broth (LB) agar plates: Agar (6.0 g) was added to LB (400 mL) and autoclaved. Once cool, the LB agar was poured into sterile petri dishes under sterile conditions and allowed to set. LB plates were stored at 4 °C until use.
(§6) Preparation of bacterial plates: Sterile LB agar plates were streaked using streaked using the desired bacteria i) Pseudomonas aeruginosa (P.aeruginosa) PAO1, ii) Klebsiella pneumoniae (K. pneumoniae) M6 iii) E. coli NCTC 12923 and iv) Acinetobacter baumannii (A. baumannii) ATCC 17978 and Gram-positive i) Staphylococcus aureus (S. aureus) ATCC 9144 ii) Enterococcus faecalis (E. faecalis) NCTC 775 and iii) Enterococcus faecium (E. faecium ) NCTC 12204, then incubated at 37 °C overnight.
(§7) Preparation of Inoculum: An initial culture was made up by inoculating LB media (5 mL) with a single colony of bacteria under sterile conditions and incubated at 37 °C with shaking overnight. The following day, overnight bacterial cultures were subcultured into fresh LB medium to a starting OD600 of 0.01.
(§8) Preparation of 96 well microplate for MIC50: The 1:100 cell suspension (150 µL) was dispensed into individual wells under sterile conditions. SSAs (30 µL) were added to the wells to equal a total volume of 180 µL in the wells. Six repeats of each concentration for each SSA were created each plate. The plates were sealed using parafilm, then incubated at 37 °C in a microplate reader for 20 hours. OD600 endpoint data was used to generate growth curves. […]

A. baumannii ATCC 17978 = test: inhibition of bacterial growth, OD600 after 20 h; format: cell-based, Acinetobacter baumannii; conditions: SSA 5.0 mM, 2.5% ethanol, negative = enhanced growth
Procedure: as §1, §2, §3, §4, §5, §6, §7, §8

P. aeruginosa PAO1 = test: inhibition of bacterial growth, OD600 after 20 h; format: cell-based, Pseudomonas aeruginosa; conditions: SSA 5.0 mM, 2.5% ethanol, negative = enhanced growth, listed as 7
Procedure: as §1, §2, §3, §4, §5, §6, §7, §8

E. faecium NCTC 12204 = test: inhibition of bacterial growth, OD600 after 20 h; format: cell-based, Enterococcus faecium; conditions: SSA 5.0 mM, 2.5% ethanol, negative = enhanced growth
Procedure: as §1, §2, §3, §4, §5, §6, §7, §8

E. coli NCTC 12923 = test: inhibition of bacterial growth, OD600 after 20 h; format: cell-based, Escherichia coli; conditions: SSA 5.0 mM, 2.5% ethanol, negative = enhanced growth
Procedure: as §1, §2, §3, §4, §5, §6, §7, §8

E. faecalis NCTC 775 = test: inhibition of bacterial growth, OD600 after 20 h; format: cell-based, Enterococcus faecalis; conditions: SSA 5.0 mM, 2.5% ethanol, negative = enhanced growth; for inhibition at 5000 µM: Enterococcus faecalis, NCTC775, 20 h, read-out: Percentage inhibition of bacterial growth, NCTC 775 (E. faecalis)
Procedure: as §1, §2, §3, §4, §5, §6, §7, §8

K. pneumoniae M6 = test: inhibition of bacterial growth, OD600 after 20 h; format: cell-based, Klebsiella pneumoniae; conditions: SSA 5.0 mM, 2.5% ethanol, negative = enhanced growth
Procedure: as §1, §2, §3, §4, §5, §6, §7, §8

[2] = tensiometry: critical aggregate concentration (CAC) and surface tension; format: physicochemical; conditions: for Surface tension at CAC: H2O/5.0 % EtOH
Procedure: As the (Q) ^1H NMR spectroscopy experiments conducted at 5.6 mM in a D2O 5.0% EtOH solution confirmed the presence of higher-order self-associated structures with solid-like properties, concentration dependent surface tension measurements, obtained through tensiometry, were used to calculate critical aggregate concentration (CAC). Here the CAC is defined as the point at which an increase in SSA concentration no longer decreases surface tension but instead results in the formation of higher-order self-associated structures.

[3] = dynamic light scattering (DLS) of SSA aggregates; format: physicochemical; conditions: 5.6 mM, H2O 5.0% EtOH, 298 K
Procedure: Dynamic light scattering (DLS) and zeta potential measurements in H2O 5.0% EtOH were used to determine the hydrodynamic diameter (dH) and stability of the higher-order SSA aggregates detected by (Q) ^1H NMR spectroscopy at 5.6 mM, Table 1. […] However, we are unable to confidently report a dH for 1 due to the instability of this system, which is supported by a zeta potential value of −26 mV, obtained for this SSA under the same experimental conditions. […] Due to the instability of these systems in the absence of solvent, attempts to further characterise these systems through SEM or AFM are not possible.[48]

[4] = 5.6 mM, D2O 5.0% EtOH, 298 K, listed as 10

**Q.** For `COc1ccc(NC(=O)N[C@@H](CC(=O)O)C(=O)O)cc1` [SSA 7], which “(Q) 1H NMR, proportion NMR silent, SSA acid or anion” value ([1]; ~112 mM, DMSO-d6 1.0% DCM) is on record?
**A.** 0%

**Q.** What about the “Percentage inhibition of bacterial growth, ATCC 9144 (S. aureus)” value (S. aureus ATCC 9144; listed as 7) of the same compound?
**A.** 5.65% and 6%

**Q.** What about the “Percentage inhibition of bacterial growth, ATCC 17978 (A. baumannii)” value (A. baumannii ATCC 17978; listed as 7) of the same compound?
**A.** 24.84% and 25%

**Q.** And the “Percentage inhibition of bacterial growth, PAO1 (P. aeruginosa)” value (P. aeruginosa PAO1)?
**A.** -24.25% and −24%

**Q.** And the “Percentage inhibition of bacterial growth, NCTC 12204 (E. faecium)” value (E. faecium NCTC 12204; listed as 7)?
**A.** 50.11% and 50%

**Q.** What about the “Percentage inhibition of bacterial growth, NCTC 12923 (E. coli)” value (E. coli NCTC 12923; listed as 7) of the same compound?
**A.** 64.22% and 64%

**Q.** And the inhibition at 5000 µM (E. faecalis NCTC 775)?
**A.** 47.2%

**Q.** What about the “Percentage inhibition of bacterial growth, NCTC 775 (E. faecalis)” value (E. faecalis NCTC 775; listed as 7) of the same compound?
**A.** 47%

**Q.** What about the “Percentage inhibition of bacterial growth, M6 (K. pneumoniae)” value (K. pneumoniae M6; listed as 7) of the same compound?
**A.** 32.42% and 32%

**Q.** And the “CAC (footnote in place of a value)” value ([2]; H2O 5.0% EtOH, 298 K)?
**A.** ^b (CAC above the limit of solubility)

**Q.** And the “ST at CAC” value ([2]; H2O 5.0% EtOH, 298 K, listed as 7)?
**A.** 55 mN m^−1

**Q.** And the “Surface tension at CAC” value ([2]; listed as 7)?
**A.** 54.72 mN/m

**Q.** And the “DLS Peak 2 maxima” value ([3]; listed as 7)?
**A.** 5177 nm

**Q.** What about the “Polydispersity index (%)” value ([3]; listed as 7) of the same compound?
**A.** 19.6 (± 1.7) %

**Q.** What about the “dH (DLS intensity distribution peak 1 maxima)” value ([3]; listed as 7) of the same compound?
**A.** 214 nm

**Q.** For `O=C(O)CC[C@H](NC(=O)Nc1ccc(Br)cc1)C(=O)O` [SSA 10], which “(Q) 1H NMR spectroscopy, proportion NMR silent, acid or anion” value [1, 4] is on record?
**A.** 38%

**Q.** And the “(Q) 1H NMR spectroscopy, proportion NMR silent, cation” value [1, 4]?
**A.** 43.6% and 44%

**Q.** What about the “(Q) 1H NMR, proportion NMR silent, SSA acid or anion” value ([1]; ~112 mM, DMSO-d6 1.0% DCM) of the same compound?
**A.** 0%

**Q.** And the “(Q) 1H NMR, proportion NMR silent, cation” value ([1]; ~112 mM, DMSO-d6 1.0% DCM)?
**A.** 0%

**Q.** And the “Percentage inhibition of bacterial growth, ATCC 9144 (S. aureus)” value (S. aureus ATCC 9144; listed as 10)?
**A.** 17.46% and 17%

**Q.** What about the “Percentage inhibition of bacterial growth, ATCC 17978 (A. baumannii)” value (A. baumannii ATCC 17978; listed as 10) of the same compound?
**A.** 49.97% and 50%

**Q.** And the inhibition at 5000 µM (E. faecium NCTC 12204; Enterococcus faecium, NCTC12204, 20 h, read-out: Percentage inhibition of bacterial growth, NCTC 12204 (E. faecium))?
**A.** 34.1%

**Q.** What about the “Percentage inhibition of bacterial growth, NCTC 12204 (E. faecium)” value (E. faecium NCTC 12204; listed as 10) of the same compound?
**A.** 34%

**Q.** And the inhibition at 5000 µM (E. coli NCTC 12923; Escherichia coli, NCTC12923, 20 h, read-out: Percentage inhibition of bacterial growth, NCTC 12923 (E. coli))?
**A.** 67.9%

**Q.** What about the “Percentage inhibition of bacterial growth, NCTC 12923 (E. coli)” value (E. coli NCTC 12923; listed as 10) of the same compound?
**A.** 68%

**Q.** What about the inhibition at 5000 µM (E. faecalis NCTC 775) of the same compound?
**A.** 23.1%

**Q.** And the “Percentage inhibition of bacterial growth, NCTC 775 (E. faecalis)” value (E. faecalis NCTC 775; listed as 10)?
**A.** 23%

**Q.** What about the inhibition at 5000 µM (K. pneumoniae M6; Klebsiella pneumoniae, M6, 20 h, read-out: Percentage inhibition of bacterial growth, M6 (K. pneumoniae)) of the same compound?
**A.** 32%

**Q.** And the “Percentage inhibition of bacterial growth, M6 (K. pneumoniae)” value (K. pneumoniae M6; listed as 10)?
**A.** 32%

**Q.** And the CAC ([2]; H2O 5.0% EtOH, 298 K)?
**A.** 26.00 mM and 26 mM

**Q.** What about the “ST at CAC” value ([2]; H2O 5.0% EtOH, 298 K) of the same compound?
**A.** 41 mN m^−1

**Q.** What about the “Surface tension at CAC” value ([2]; listed as 10) of the same compound?
**A.** 41.37 mN/m

**Q.** And the “Polydispersity index (%)” value ([3]; listed as 10)?
**A.** 26.0 (± 0.5) %

**Q.** And the “dH (DLS intensity distribution peak 1 maxima)” value ([3]; listed as 10)?
**A.** 307 nm

Reference: article PMC12645191, “Dicarboxylate and dicarboxylic acid appended supramolecular self-associating amphiphiles as antimicrobial agents against high priority bacterial pathogens” (Organic & Biomolecular Chemistry, 2025)
